The values that follow come from publication PMC6214108, “Synthesis and In Vitro Antitumor Activity of Novel Bivalent β-Carboline-3-carboxylic Acid Derivatives with DNA as a Potential Target” (International Journal of Molecular Sciences, 2018).

By ΔTm is commonly meant the shift of the melting midpoint relative to a reference. A word on the IC50: it is the concentration that gives 50% inhibition.

For one assay, the system named is CT DNA. The experiment in a line: Thermal denaturation study with CT DNA. It is filed as binding, calf. Particulars: β-carboline/DNA ratio of 0.5, pH 7.4. The method, then: The DNA-binding modes of the β-carboline derivatives (4B, 6i, 4D, and 6u) with CT DNA were examined by DNA thermal denaturation experiments, as previously described. The solutions containing complexes of CT DNA and 4B, 6i, 4D, or 6u were heated using a thermostatic water bath, and the absorbance was measured in 1 °C steps from 30 °C to 95 °C at 260 nm (At) by a UV-Vis spectrophotometer (A is the absorbance of the solution at 260 nm at different temperatures, t is the temperature). The experiments were performed in PE buffer (pH = 7.4) with a β-carboline/DNA ratio of 0.5. The ΔTm value of DNA alone is 56.8 °C. ΔTm = ΔTm^(DNA + 4B, 6i, 4D, or 6u) − ΔTm^(DNA alone).
Figure 6 Thermal denaturation study of the complexes of β-carbolines (4B, 6i, 4D, and 6u) and CT-DNA. Melting temperatures were measured in PBS-EDTA buffer (1 mM Na2HPO4, 0.1 mM EDTA, PH 7.4) with a β-carboline (4B, 6i, 4D, and 6u)/DNA ratio of 0.5. ΔTm = (ΔTm^4B,6i,4D, or 6u + DNA − ΔTm^DNA).

Assay [1] relates to MCF-7 (breast carcinoma) cell line. As to the kind of experiment: MTT cytotoxicity assay, MCF-7. The class given is cell-based. Particulars: Homo sapiens, MCF7, 48 h, mean of three independent experiments, read-out: IC50 (μM) Mean ± SD, MCF-7. The method, then: (§1) All cell lines (A549, SGC-7901, Hela, SMMC-7721, and MCF-7) were purchased from the American Type Culture Collection (Manassas, VA, USA), and were cultured in Dulbecco’s modified Eagle’s medium (DMEM, HycloneLaboratories Inc., Logan, Utah, USA) supplemented with 10% fetal bovine serum (FBS, Gibco&Invitrogen, Carlsbad, CA, USA) at 37 °C and 5% CO2.
(§2) The cytotoxic activities of β-carboline-3-carboxylic acid derivatives were investigated by the MTT method, as previously described. Cells (1 × 10^4 cells per well) seeded into 96-well plates (JET, Guangzhou, China) were incubated with DMEM containing various concentrations (2.5, 5, 10, 20, 40, and 80 μM) of β-carbolines (4A, 4B, 4C, 4D, 6a-6f, 6g-6l, 6m-6r, and 6s-6x) for 48 h at 37 °C and 5% CO2. Then, 10 µL of 5 mg/mL MTT reagent dissolved in PBS (Phosphate buffered saline) was added per well, and plates were incubated at 37 °C for 4 h. The medium was carefully removed and 100 µL dimethyl sulfoxide (DMSO) was added to dissolve the formazan crystals. The absorbance was measured at 490 nm with a microplate reader (ThermoFisher Scientific Inc., Waltham, MA, USA). The β-carbolines were dissolved in DMSO as stock solutions (10 mM) at −20 °C, and diluted in the final experimental solution using DMEM before use. A549 (lung carcinoma), SGC-7901 (gastric carcinoma), Hela (cervical carcinoma), SMMC-7721 (liver carcinoma), and MCF-7 (breast carcinoma) cell lines were used for the antitumor activity screening. The IC50 values were the mean values of three independent experiments.
On the technique in general: Tetrazolium dyes change colour on reduction, which living cells bring about.

Assay [2] concerns Hela (cervical carcinoma) cell line. The experiment in a line: MTT cytotoxicity assay, Hela. Particulars: Homo sapiens, 48 h, mean of three independent experiments, read-out: IC50 (μM) Mean ± SD, Hela. The class given is cell-based. The method, then: as §1, §2
In another assay the test system is A549 cells. The experiment in a line: Cell apoptosis assay, Annexin V-FITC/PI dual staining, flow cytometry. The class given is cell-based. To be noted: 48 h; for Percentage of Cell Apoptosis (%) Normal Living Cell: lower left quadrant in Figure 3; for Percentage of Cell Apoptosis (%) Early Apoptosis: lower right quadrant in Figure 3. The method, then: The cell apoptosis was evaluated using Annexin V-FITC/PI dual staining (Beyotime, China). A549 cells (1 × 10^6 cells per well) seeded into 6-well plates (JET, Guangzhou, China) were incubated with DMEM containing various concentrations (2, 4, and 8 μM) of β-carbolines (4B, 6i, 4D, and 6u) for 48 h at 37 °C and 5% CO2. The cells in the supernatant and adherent were collected and washed with PBS, and then the cells were stained with Annexin V-FITC and PI for 20 min at r.t. The samples were analyzed using flow cytometry (Becton Dickinson, San Jose, CA, USA).
Figure 3 The cell apoptosis was detected by flow cytometry using Annexin V-FITC/PI dual staining. A549 cells were treated with 4B, 6i, 4D, and 6u at 2, 4, and 8 μM for 48 h, and then stained with Annexin V-FITC and PI for 15 min at 37 °C. The proportions of the living cells, the early apoptosis cells, and the late apoptotic cells were analyzed by FCS Express 5.0. TEXT PRINTED IN THE PICTURE: 4B: 9.00% (2 μM); 11.89% (2 μM); 75.93% (2 μM); 3.18% (2 μM); 8.92% (4 μM); 27.14% (4 μM); 48.59% (4 μM); 15.35% (4 μM); 3.89% (8 μM); 65.76% (8 μM); 21.95% (8 μM); 8.40% (8 μM) | 6i: 0.77% (2 μM); 20.26% (2 μM); 72.12% (2 μM); 6.85% (2 μM); 9.33% (4 μM); 33.08% (4 μM); 44.94% (4 μM); 12.65% (4 μM); 23.51% (8 μM); 59.73% (8 μM); 12.52% (8 μM); 4.24% (8 μM) | Control: 0.36%; 7.08%; 88.34%; 4.22% | 4D: 2.62% (2 μM); 16.16% (2 μM); 73.94% (2 μM); 7.27% (2 μM); 10.30% (4 μM); 34.96% (4 μM); 47.93% (4 μM); 6.80% (4 μM); 22.79% (8 μM); 54.30% (8 μM); 17.63% (8 μM); 5.28% (8 μM) | 6u: 0.17% (2 μM); 21.64% (2 μM); 66.05% (2 μM); 12.14% (2 μM); 6.92% (4 μM); 54.01% (4 μM); 32.53% (4 μM); 6.54% (4 μM); 2.79% (8 μM); 80.73% (8 μM); 8.83% (8 μM); 7.65% (8 μM) DOUBTS OF THE COPYIST ABOUT THIS PICTURE: The quadrant percentages carry no printed measure. For each plot they are listed in the order upper left, upper right, lower left, lower right. / All quadrant percentages are printed very small and blurred, so 3, 5, 6, 8 and 9 cannot be told apart with certainty in any of them.
Background: In flow cytometry, cells or beads pass a laser one at a time.

For `COC(=O)c1cc2c3ccccc3n(Cc3ccccc3F)c2cn1` [Compound 4D], the ΔTm in the assay with CT DNA is 3.5 °C. Further, the IC50 in assay [1] amounted to 53.9 ± 2.02 µM; in assay [2] it was 26.4 ± 1.33 µM. Moreover, the “Percentage of Cell Apoptosis (%) Late Apoptosis and Necrosis” value in the assay with A549 cells (A549, 2 μM) was determined as 18.78%; with A549 cells (A549, 4 μM), 45.26%; with A549 cells (A549, 8 μM) it was 77.09%. In addition, the “Percentage of Cell Apoptosis (%) Normal Living Cell” value (from here on “Percentage … (%) Normal Living Cell”) was 73.94% in the assay on A549 cells (A549, 2 μM); 47.93% in the assay with A549 cells (A549, 4 μM); 17.63% in the assay on A549 cells (A549, 8 μM). Further, the “Percentage of Cell Apoptosis (%) Early Apoptosis” value (shortened to “Percentage … (%) Early Apoptosis”) in the assay on A549 cells (A549, 2 μM) came out at 7.27%; in the assay on A549 cells (A549, 4 μM) it was 6.80%; with A549 cells (A549, 8 μM) it was 5.28%.
For `Cc1ccccc1Cn1c2ccccc2c2cc(C(=O)OCCCCCOC(=O)c3cc4c5ccccc5n(Cc5ccccc5C)c4cn3)ncc21` [Compound 6i], in the assay with CT DNA, the ΔTm turned out to be 8.5 °C. Also, the IC50 in assay [1] was determined as 59.3 ± 5.86 µM; in assay [2], 9.88 ± 0.04 µM. Further, the “Percentage of Cell Apoptosis (%) Late Apoptosis and Necrosis” value in the assay with A549 cells (A549, 2 μM) is 21.03%; in the assay with A549 cells (A549, 4 μM), 42.41%; in the assay on A549 cells (A549, 8 μM), 83.24%. Besides, the “Percentage … (%) Normal Living Cell” value with A549 cells (A549, 2 μM) is recorded as 72.12%; in the assay on A549 cells (A549, 4 μM), 44.94%; in the assay with A549 cells (A549, 8 μM), 12.52%. Besides, the “Percentage … (%) Early Apoptosis” value is 6.85% in the assay on A549 cells (A549, 2 μM); 12.65% with A549 cells (A549, 4 μM); 4.24% in the assay on A549 cells (A549, 8 μM).
Regarding `O=C(OCCCCCOC(=O)c1cc2c3ccccc3n(Cc3ccccc3F)c2cn1)c1cc2c3ccccc3n(Cc3ccccc3F)c2cn1` [Compound 6u], in the assay on CT DNA, the ΔTm was 9.0 °C. In addition, the IC50 in assay [1] is 36 ± 2.99 µM; in assay [2], 14.6 ± 0.36 µM. The “Percentage of Cell Apoptosis (%) Late Apoptosis and Necrosis” value was 21.81% with A549 cells (A549, 2 μM); 60.93% with A549 cells (A549, 4 μM); 83.52% with A549 cells (A549, 8 μM). The “Percentage … (%) Normal Living Cell” value in the assay on A549 cells (A549, 2 μM) turned out to be 66.05%; in the assay on A549 cells (A549, 4 μM), 32.53%; with A549 cells (A549, 8 μM), 8.83%. Besides, the “Percentage … (%) Early Apoptosis” value in the assay with A549 cells (A549, 2 μM) was 12.14%; in the assay with A549 cells (A549, 4 μM), 6.54%; in the assay with A549 cells (A549, 8 μM) it was 7.65%.
On to `COC(=O)c1cc2c3ccccc3n(Cc3ccccc3C)c2cn1` [Compound 4B], for which, in the assay on CT DNA, the ΔTm amounted to 7.5 °C. The results for the IC50 in assay [1] and in assay [2] were more than 80 µM and 31.3 ± 2.33 µM, respectively. The “Percentage of Cell Apoptosis (%) Late Apoptosis and Necrosis” value in the assay with A549 cells (A549, 2 μM) is given as 20.89%; in the assay with A549 cells (A549, 4 μM), 36.06%; in the assay with A549 cells (A549, 8 μM) it was 69.65%. The “Percentage … (%) Normal Living Cell” value with A549 cells (A549, 2 μM) was 75.93%; in the assay on A549 cells (A549, 4 μM), 48.59%; in the assay on A549 cells (A549, 8 μM), 21.95%. The “Percentage … (%) Early Apoptosis” value in the assay with A549 cells (A549, 2 μM) came out at 3.18%; with A549 cells (A549, 4 μM), 15.35%; with A549 cells (A549, 8 μM), 8.40%.
